For six compounds, Ki results are on record in US8367695B2, “Condensed tetrahydroquinoline derivative and use thereof for medical purposes” (Mitsubishi Tanabe Pharma Corporation, priority 2007, dated 2013).

Structures are written as SMILES.

The assay has as its target T1, human recombinant progesterone receptor-B (PRB) (Homo sapiens, UniProt P06401).
T1 construct: purchased Invitrogen (Carlsbad, Calif.)
T1 sequence (P06401 1-933): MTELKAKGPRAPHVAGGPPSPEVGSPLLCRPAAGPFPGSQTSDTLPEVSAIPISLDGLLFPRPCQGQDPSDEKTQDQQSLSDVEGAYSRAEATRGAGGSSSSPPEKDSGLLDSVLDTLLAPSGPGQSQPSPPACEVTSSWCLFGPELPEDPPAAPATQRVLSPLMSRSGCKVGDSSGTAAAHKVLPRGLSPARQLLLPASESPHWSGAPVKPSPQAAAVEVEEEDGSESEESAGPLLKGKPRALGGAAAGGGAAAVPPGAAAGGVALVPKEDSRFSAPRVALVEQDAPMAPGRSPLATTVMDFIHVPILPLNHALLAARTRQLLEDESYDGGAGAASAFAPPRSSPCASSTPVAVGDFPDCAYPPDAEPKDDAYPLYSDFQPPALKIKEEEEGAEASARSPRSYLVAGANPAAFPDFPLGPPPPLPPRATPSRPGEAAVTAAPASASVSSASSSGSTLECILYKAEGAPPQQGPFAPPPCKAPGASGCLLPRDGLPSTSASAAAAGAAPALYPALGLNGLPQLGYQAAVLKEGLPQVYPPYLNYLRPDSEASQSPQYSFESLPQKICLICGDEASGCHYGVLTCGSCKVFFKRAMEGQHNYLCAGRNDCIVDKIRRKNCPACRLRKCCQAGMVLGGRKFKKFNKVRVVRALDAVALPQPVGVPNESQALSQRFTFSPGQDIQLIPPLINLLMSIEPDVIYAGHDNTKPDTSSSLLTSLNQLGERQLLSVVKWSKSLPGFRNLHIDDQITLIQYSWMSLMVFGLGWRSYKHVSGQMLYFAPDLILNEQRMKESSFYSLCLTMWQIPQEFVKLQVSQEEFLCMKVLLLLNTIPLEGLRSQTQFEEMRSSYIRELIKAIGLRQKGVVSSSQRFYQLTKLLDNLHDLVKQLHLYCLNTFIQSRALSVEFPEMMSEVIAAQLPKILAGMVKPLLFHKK
Kind of assay: Radioactive ligand binding test, PRB cytosol, [3H]-Prog. The settings on record: [3H]-Prog about 5 nM, PRB cytosol, 4° C.; Cheng-Prusoff, Kd about 3.5 nM; read-out: PR (Ki: nM). From the text:
Radioactive Ligand Binding Test Using Cytosols of Human Glucocorticoids Receptor, Progesterone Receptor and Mineralocorticoid Receptor
The procedures described in Neuroimmunomodulation (1994, 1, p. 66-73) and Invest. Opthalmol. Vis. Sci. (1996, 37, p. 805-813) were modified and used. In brief, cytosol preparations of human recombinant glucocorticoids receptor (GR) and human recombinant progesterone receptor-B (PRB) were purchased from Invitrogen (Carlsbad, Calif.), and a cytosol preparation of human recombinant mineralocorticoid receptor (MR) was prepared by our company (Yokohama, JP). MR cDNA was cloned into a baculovirus expression vector and expressed in insect cell Sf9. The procedures described in J. Biol. Chem. (1991, 266, p. 18072-18081), Proc. Natl. Acad. Sci. USA (1991, 88, p. 10681-10685) and Bac-to-Bac (registered trade mark) Baculovirus Expression Systems technical manual (Invitrogen) were partly modified and used as the procedures for MR gene cloning up to preparation of recombinant receptor cytosol. [^3H]-Dexamethasone (Dex, specific activity 91.0 Ci/mmol) was purchased from GE Healthcare (Buckinghamshire, UK), and [^3H]-progesterone (Prog, specific activity 103 Ci/mmol) and [3H]-aldosterone (Ald, specific activity 87.9 Ci/mmol) were each purchased from PerkinElmer (Boston, Mass.). Polypropylene round-bottomed 96 well plate was obtained from ABgene (Epsom, UK). Dimethyl Sulfoxide (DMSO) and hydrochloric acid were obtained from Kanto Chemical (TOKYO, JP). Trizma Base (Tris), Bovine Serum Albumin (BSA) and Sodium tungstate dihydrate were obtained from Sigma Chemicals (St. Louis, Mo.). Dithiothreitol (DTT) and Dextran 70 were obtained from GE Healthcare (Buckinghamshire, UK). Glycerol was obtained from Junsei Chemical (TOKYO, JP). Norit® “SX-II” was obtained from Wako Pure Chemical Industries, Ltd. (Osaka, JP). MeltiLex™, A, Printed Filtermat A and Sample Bag were obtained from PerkinElmer (Boston, Mass.).
As a buffer for GR binding assay, 25 mM Tris-HCl (4° C., pH 7.4)/1 mM EDTA·2Na/1 mM DTT/0.1% BSA was prepared and used. As buffers for PRB and MR binding assay, 10 mM Tris-HCl (4° C., pH 7.4)/1 mM DTT/0.1% BSA/10% glycerol and 20 mM Tris-HCl (4° C., pH 7.4)/1 mM EDTA·2Na/10% glycerol/20 mM sodium tungstate were respectively prepared and used. As dextran-coated charcoal (DCC) for B/F separation, 0.75% Dextran 70/0.75% Norit® SX-II/10 mM Tris-HCl (4° C., pH 7.4) was prepared and used.
Compound storage solutions (5-20 mM) were prepared using DMSO. The storage solutions were diluted with DMSO to 0.1 mM (for GR) and 0.3 mM (for PRB and MR), and further diluted 20-fold with distilled water to give solutions. Then, the preparations were diluted to each concentration with 5% DMSO solution. 1% DMSO was present at the time of the binding assay.
In the case of PRB binding assay, [^3H]-Prog (about 5 nM), PRB cytosol (concentration of function receptor: about 4 pmol/mL), a test compound and a binding buffer were mixed in a total volume of 50 μL, and the mixture was stood at 4° C. for 30 min or longer. A specific binding was defined to be the difference in the [^3H]-Prog binding between the presence and the absence of 1 μM unlabeled Prog.
After the reaction, 50 μL of DCC was added to each well and blended. Thereafter, the mixture was stood at 4° C. for 10 min. The plate was applied to high-speed cooling centrifuge under the conditions of 4° C., 2000 rpm, 5 min to perform B/F separation. A given amount of the supernatant was recovered, which was spotted on Filtermat A of 96 well format (PerkinElmer) and rapidly dried at a high temperature. Then, solid scintillator MeltiLex A (PerkinElmer) was melted on Filtermat A. The mixture was placed in a Sample Bag (PerkinElmer), and the level of radioactivity was measured by plate reader 1450 Micro Beta TRILUX (PerkinElmer).
Measurement of Inhibition Constant (Ki)
A word on the Ki: it is the equilibrium dissociation constant of an inhibitor or competing ligand from its target. Regarding `CC#CCC1(C)C(=O)C(C)(C)Nc2c1cc(-c1cccc3nccn13)c1c2CCC1` (stereo not drawn) [Example 63, 4-(2-butynyl)-6-(imidazo[1,2-a]pyridin-5-yl)-2,2,4-trimethyl-2,3,4,7,8,9-hexahydro-1H-cyclopenta[h]quinolin-3-one], the Ki is greater than 1250 nM.

Turning to `CC1(C)Nc2c(cc(-c3cccc4ncccc34)c3c2OCO3)C(C)(C)C1=O` [Example 72, 6,6,8,8-tetramethyl-4-(quinolin-5-yl)-6,7,8,9-tetrahydro-[1,3]dioxolo[4,5-h]quinolin-7-one], the Ki was greater than 1250 nM.

As to `C=CCC1(C)C(=O)C(C)(C)Nc2c1cc(-c1cccc3nccn13)c1c2CCC1` (stereo not drawn) [Example 57, 4-allyl-6-(imidazo[1,2-a]pyridin-5-yl)-2,2,4-trimethyl-2,3,4,7,8,9-hexahydro-1H-cyclopenta[h]quinolin-3-one], the Ki was greater than 1250 nM.

Consider `C=CCC1(C)C(=O)C(C)(C)Nc2c1cc(-c1c(C)noc1C)c1c2CCC1` (stereo not drawn) [Example 51, 4-allyl-6-(3,5-dimethylisoxazol-4-yl)-2,2,4-trimethyl-2,3,4,7,8,9-hexahydro-1H-cyclopenta[h]quinolin-3-one], for which the Ki is greater than 1250 nM.

Take `CC1(C)Nc2c(cc(-c3cccc4nccn34)c3c2CCO3)C(C)(C)C1=O` [Example 88, 6-(imidazo[1,2-a]pyridin-5-yl)-2,2,4,4-tetramethyl-1,2,3,4,8,9-hexahydro-furo[2,3-h]quinolin-3-one]: the Ki was greater than 1250 nM.

Take `CC1(C)Nc2c(cc(-c3ccnc4cc[nH]c34)c3c2CCC3)C(C)(C)C1=O` [Example 13, 2,2,4,4-tetramethyl-6-(1H-pyrrolo[3,2-b]pyridin-7-yl)-2,3,4,7,8,9-hexahydro-1H-cyclopenta[h]quinolin-3-one]: the Ki was greater than 1250 nM.
